Series [1] relates to Streptomyces fradiae E2724.1. Kind of series: Antibiotic sensitivity (sensitivity discs), E2724.1. Note: key: -: resistance (no zones of inhibition); +: sensitivity (zones of inhibition); trace of sensitivity. It counts as cell-based. The following applies: discs: chloramphenicol 30 μg, erythromycin 15 μg, cephaloridine 30 μg, lincomycin 2 μg, polymyxin B 300 units, streptomycin 10 μg, tetracycline 30 μg, vancomycin 30 μg. From the text:
(§1) ^a Determined by using sensitivity discs padded onto seededagar

Series [2] has as its system Streptomyces fradiae NRRL 11271. Briefly: Antibiotic sensitivity (sensitivity discs), NRRL 11271. Note: key: -: resistance (no zones of inhibition); +: sensitivity (zones of inhibition); trace of sensitivity. It counts as cell-based. The following applies: discs: chloramphenicol 30 μg, erythromycin 15 μg, cephaloridine 30 μg, lincomycin 2 μg, polymyxin B 300 units, streptomycin 10 μg, tetracycline 30 μg, vancomycin 30 μg.
Excerpt: as §1

Series [3] deals with gram-positive microorganisms and Mycoplasma species. Kind of series: Growth inhibition of pathogenic organisms (general statement). It counts as cell-based.
Series [4] relates to Streptococcus pneumoniae Park I. Kind of series: MIC, standard agar-dilution assay, Streptococcus pneumoniae Park I. It counts as cell-based.
Series [5] deals with Staphylococcus aureus 3055. Kind of series: MIC, standard agar-dilution assay, Staphylococcus aureus 3055. It counts as cell-based.
Series [6] concerns Streptococcus pyogenes C203. Kind of series: MIC, standard agar-dilution assay, Streptococcus pyogenes C203. It counts as cell-based.
For the next series, the system named is Mycoplasma hyorhinis. Kind of series: MIC, standard agar-dilution assay, Mycoplasma hyorhinis. It counts as cell-based.
Another series deals with Pasteurella hemolytica. Kind of series: MIC, standard agar-dilution assay, Pasteurella hemolytica. It counts as cell-based.
Series [7] can be described thus: Electrometric titration of DMOT (pKa). It counts as physicochemical. The following applies: 66% aqueous dimethylformamide. From the text: Electrometric titration of DMOT in 66% aqueous dimethylformamide indicates the presence of a titratable group with a pKa value of about 7.3.
A further series has as its system Mycoplasma hyopneumoniae. Briefly: MIC, standard agar-dilution assay, Mycoplasma hyopneumoniae. It counts as cell-based. The following applies: Mesomycoplasma hyopneumoniae.
Series [8] relates to Streptococcus sp. (Group D) 282. Briefly: MIC, standard agar-dilution assay, Streptococcus sp. (Group D) 282. It counts as cell-based.
For series [9], the system named is Streptococcus pyogenes C203. Briefly: In vivo activity against experimental bacterial infection in mice (ED50). The following applies: C203, sc, subcutaneous, two doses, bacterial challenge 268 X LD50, effective dose to protect 50% of the test animals. How it is done:
The DMOT compounds have shown in vivo antimicrobial activity against experimental bacterial infections. When two doses of test compound were administered to mice in experimental infections, the activity observed was measured as an ED50 value [effective dose in mg/kg to protect 50% of the test animals: see Warren Wick, et al., J. Bacteriol. 81, 233-235 (1961)].
^a Subcutaneous; mg/kg × 2

The next series relates to Pasteurella multocida. Briefly: MIC, standard agar-dilution assay, Pasteurella multocida. It counts as cell-based.
Another series relates to Mycoplasma gallisepticum. Briefly: MIC, standard agar-dilution assay, Mycoplasma gallisepticum. It counts as cell-based. The conditions noted are these: Mycoplasmoides gallisepticum.
A further series is described as follows: Solubility. The conditions noted are these: free base. It counts as physicochemical.

Each structure is given as a SMILES string. ≈ marks a conversion by molar mass, not a printed value.

Consider nine molecules from patent US4334019A, “Process for producing de(mycinosyloxy)tylosin” (Eli Lilly and Company, priority 1981, dated 1982).

Take `CN(C)[C@@H]1C(O)=C(C(N)=O)C(=O)[C@@]2(O)C(O)=C3C(=O)c4c(O)cccc4[C@@](C)(O)[C@H]3C[C@@H]12` [Tetracycline]: the “Antibiotic sensitivity, E2724.1” value in [1] was “+”. Also, the “Antibiotic sensitivity, NRRL 11271” value in series [2] was “+”.
With `O=C(N[C@H](CO)[C@H](O)c1ccc([N+](=O)[O-])cc1)C(Cl)Cl` [Chloramphenicol], the “Antibiotic sensitivity, E2724.1” value in [1] is “+”. Besides, the “Antibiotic sensitivity, NRRL 11271” value in [2] was “+”.
With `CCC1OC(=O)CC(O)C(C)C(OC2OC(C)C(OC3CC(C)(O)C(O)C(C)O3)C(N(C)C)C2O)C(CCO)CC(C)C(=O)C=CC(C)=CC1C` (stereo not shown) [dihydro-DMOT, 20-dihydro-23-de(mycinosyloxy)tylosin], the “antibacterial activity (in words)” value in series [3] is “especially active against gram-positive microorganisms and Mycoplasma species”.
Take `CC[C@H]1OC(=O)[C@H](C)[C@@H](O[C@H]2C[C@@](C)(OC)[C@@H](O)[C@H](C)O2)[C@H](C)[C@@H](O[C@@H]2O[C@H](C)C[C@H](N(C)C)[C@H]2O)[C@](C)(O)C[C@@H](C)C(=O)[C@H](C)[C@@H](O)[C@]1(C)O` [Erythromycin]: the “Antibiotic sensitivity, NRRL 11271” value in [2] was “+”.
On to `O=C(Cc1cccs1)N[C@@H]1C(=O)N2C(C(=O)[O-])=C(C[n+]3ccccc3)CS[C@H]12` [Cephaloridine], for which the “Antibiotic sensitivity, E2724.1” value in series [1] was “+”. For the same molecule, the “Antibiotic sensitivity, NRRL 11271” value in series [2] is reported as “+”.
On to `[H]/N=C(/N)N[C@H]1[C@H](O)[C@@H](O)[C@H](O[C@@H]2O[C@@H](C)[C@](O)(C=O)[C@H]2O[C@@H]2O[C@@H](CO)[C@H](O)[C@@H](O)[C@@H]2NC)[C@@H](N/C(N)=N\[H])[C@@H]1O` [Streptomycin], for which, in series [1], the “Antibiotic sensitivity, E2724.1” value is “+”. Besides, the “Antibiotic sensitivity, NRRL 11271” value in series [2] is reported as “+”.
For the molecule `CN[C@H](CC(C)C)C(=O)N[C@H]1C(=O)N[C@@H](CC(N)=O)C(=O)N[C@H]2C(=O)N[C@H]3C(=O)N[C@H](C(=O)N[C@H](C(=O)O)c4cc(O)cc(O)c4-c4cc3ccc4O)[C@H](O)c3ccc(c(Cl)c3)Oc3cc2cc(c3O[C@@H]2O[C@H](CO)[C@@H](O)[C@H](O)[C@H]2O[C@H]2C[C@](C)(N)[C@H](O)[C@H](C)O2)Oc2ccc(cc2Cl)[C@H]1O` [Vancomycin], the “Antibiotic sensitivity, E2724.1” value in series [1] is “+”. The “Antibiotic sensitivity, NRRL 11271” value in [2] is listed as “+”.
With `CCC[C@@H]1C[C@@H](C(=O)N[C@@H]([C@H]2O[C@H](SC)[C@H](O)[C@@H](O)[C@H]2O)[C@@H](C)O)N(C)C1` [Lincomycin], in series [1], the “Antibiotic sensitivity, E2724.1” value is on record as “-”. Moreover, the “Antibiotic sensitivity, NRRL 11271” value in series [2] was “-”.
In the case of `CCC1OC(=O)CC(O)C(C)C(OC2OC(C)C(OC3CC(C)(O)C(O)C(C)O3)C(N(C)C)C2O)C(CC=O)CC(C)C(=O)C=CC(C)=CC1C` (stereo not shown) [DMOT, 23-de(mycinosyloxy)tylosin], the MIC in [4] was determined as 0.13 µg/mL (≈ 0.179 µM); in [5], 1 µg/mL (≈ 1.38 µM); in series [6], 0.25 µg/mL (≈ 0.344 µM); against Mycoplasma hyorhinis, 0.78 µg/mL (≈ 1.07 µM); against Pasteurella hemolytica, 25 µg/mL (≈ 34.4 µM); against Mycoplasma hyopneumoniae, 0.39 µg/mL (≈ 0.537 µM). In addition, the MIC was 0.5 µg/mL (≈ 0.689 µM) in series [8], 6.25 µg/mL (≈ 8.61 µM) against Pasteurella multocida and 0.097 µg/mL (≈ 0.134 µM) against Mycoplasma gallisepticum. The same molecule registered a pKa in [7] of around 7.3. This molecule also displayed an ED50 in series [9] of 6.3 mg/kg. Besides, the “antibacterial activity (in words)” value in series [3] was “especially active against gram-positive microorganisms and Mycoplasma species”. Also, the “solubility in polar organic solvents” value in “Solubility” (most polar organic solvents, such as acetone, methanol, ethanol, dimethylformamide, chloroform and dimethyl sulfoxide) is reported as “soluble”. The solubility in water entry in the series “Solubility” (water) was “sparingly soluble”.

In general, MIC refers to the smallest concentration in the dilution series that meets the test's criterion for growth inhibition. Read a low MIC as greater potency. In general, pKa refers to the pH at which an ionisable group is half protonated. A low value points to a stronger acid or weaker base. As a reminder, the ED50 is the dose that gives a 50% effect, or the effect in half of the subjects.
